Laboratory results published in patent US20230151003A1, “COMPOUNDS AND METHODS OF USE” (Exelixis, Inc., priority 2020, published 2023).
Where a name gives a salt, the structure may show the parent alone.

What was measured:
KDR = KDR (Homo sapiens, UniProt P35968); assay: KDR autophosphorylation ELISA in HUVEC cells; type: cell-based; design: endogenous in cells; host or cells: HUVEC (Lonza #C2519A); settings: Table 3 Cellular Activities, VEGF165-stimulated, phospho-KDR ELISA
Summary of the method: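 Phospho-KDR levels in lysates were measured by ELISA and referenced to stimulated-vehicle (100%) and unstimulated (0%) wells, IC50 from 4-parameter logistic fit. HUVEC, starved 24 h in serum-free medium, received an 8-point compound series (0.3% DMSO) for 1 h before a 5 min 100 ng/mL VEGF165 challenge.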

Mer = target: T1, Mer (Homo sapiens, UniProt Q12866); assay: Mer autophosphorylation ELISA in transient transfected 293A cells; type: cell-based; settings: Table 3 Cellular Activities; MERTK-transfected 293A cells, phospho-Mer ELISA
T1 construct: host or cells: 293A cells (Thermo Fisher #R70507)
T1 sequence (Q12866 21-999): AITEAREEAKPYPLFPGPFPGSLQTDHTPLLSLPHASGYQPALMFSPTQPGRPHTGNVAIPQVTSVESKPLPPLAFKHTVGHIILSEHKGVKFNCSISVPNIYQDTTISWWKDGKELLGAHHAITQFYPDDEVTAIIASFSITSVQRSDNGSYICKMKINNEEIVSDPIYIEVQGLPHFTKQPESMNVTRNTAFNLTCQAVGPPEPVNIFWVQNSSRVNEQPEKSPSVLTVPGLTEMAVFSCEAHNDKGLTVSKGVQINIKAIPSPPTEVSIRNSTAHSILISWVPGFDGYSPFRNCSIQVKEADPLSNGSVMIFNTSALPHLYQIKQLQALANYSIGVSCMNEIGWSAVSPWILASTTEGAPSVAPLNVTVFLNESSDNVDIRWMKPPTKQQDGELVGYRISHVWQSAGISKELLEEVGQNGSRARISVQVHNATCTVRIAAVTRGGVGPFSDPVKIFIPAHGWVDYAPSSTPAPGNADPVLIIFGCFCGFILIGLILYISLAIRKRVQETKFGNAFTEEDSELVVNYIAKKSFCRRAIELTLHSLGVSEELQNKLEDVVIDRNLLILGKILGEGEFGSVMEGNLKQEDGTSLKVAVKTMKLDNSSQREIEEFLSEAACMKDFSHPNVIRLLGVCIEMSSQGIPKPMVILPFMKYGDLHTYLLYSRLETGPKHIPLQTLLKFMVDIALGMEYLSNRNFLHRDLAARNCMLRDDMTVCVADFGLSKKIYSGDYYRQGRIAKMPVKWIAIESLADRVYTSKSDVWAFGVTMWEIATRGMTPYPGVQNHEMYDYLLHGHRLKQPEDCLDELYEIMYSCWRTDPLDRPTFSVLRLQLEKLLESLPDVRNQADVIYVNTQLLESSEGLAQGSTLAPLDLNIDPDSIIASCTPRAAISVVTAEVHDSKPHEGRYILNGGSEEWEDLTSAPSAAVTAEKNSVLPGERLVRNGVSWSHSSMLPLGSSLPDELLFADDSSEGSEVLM
Summary of the method: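 293A cells transiently transfected with human MERTK DNA, replated after 24 h, then treated 1 h with 8-point compound dilutions in serum-free medium (0.3% DMSO). Lysates assayed by phospho-Mer sandwich ELISA against phospho-Mer standard; DMSO = 100%, reference inhibitor = 0% activity; IC50 by 4-parameter logistic fit.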

Chain of KDR (P35968 20-1356): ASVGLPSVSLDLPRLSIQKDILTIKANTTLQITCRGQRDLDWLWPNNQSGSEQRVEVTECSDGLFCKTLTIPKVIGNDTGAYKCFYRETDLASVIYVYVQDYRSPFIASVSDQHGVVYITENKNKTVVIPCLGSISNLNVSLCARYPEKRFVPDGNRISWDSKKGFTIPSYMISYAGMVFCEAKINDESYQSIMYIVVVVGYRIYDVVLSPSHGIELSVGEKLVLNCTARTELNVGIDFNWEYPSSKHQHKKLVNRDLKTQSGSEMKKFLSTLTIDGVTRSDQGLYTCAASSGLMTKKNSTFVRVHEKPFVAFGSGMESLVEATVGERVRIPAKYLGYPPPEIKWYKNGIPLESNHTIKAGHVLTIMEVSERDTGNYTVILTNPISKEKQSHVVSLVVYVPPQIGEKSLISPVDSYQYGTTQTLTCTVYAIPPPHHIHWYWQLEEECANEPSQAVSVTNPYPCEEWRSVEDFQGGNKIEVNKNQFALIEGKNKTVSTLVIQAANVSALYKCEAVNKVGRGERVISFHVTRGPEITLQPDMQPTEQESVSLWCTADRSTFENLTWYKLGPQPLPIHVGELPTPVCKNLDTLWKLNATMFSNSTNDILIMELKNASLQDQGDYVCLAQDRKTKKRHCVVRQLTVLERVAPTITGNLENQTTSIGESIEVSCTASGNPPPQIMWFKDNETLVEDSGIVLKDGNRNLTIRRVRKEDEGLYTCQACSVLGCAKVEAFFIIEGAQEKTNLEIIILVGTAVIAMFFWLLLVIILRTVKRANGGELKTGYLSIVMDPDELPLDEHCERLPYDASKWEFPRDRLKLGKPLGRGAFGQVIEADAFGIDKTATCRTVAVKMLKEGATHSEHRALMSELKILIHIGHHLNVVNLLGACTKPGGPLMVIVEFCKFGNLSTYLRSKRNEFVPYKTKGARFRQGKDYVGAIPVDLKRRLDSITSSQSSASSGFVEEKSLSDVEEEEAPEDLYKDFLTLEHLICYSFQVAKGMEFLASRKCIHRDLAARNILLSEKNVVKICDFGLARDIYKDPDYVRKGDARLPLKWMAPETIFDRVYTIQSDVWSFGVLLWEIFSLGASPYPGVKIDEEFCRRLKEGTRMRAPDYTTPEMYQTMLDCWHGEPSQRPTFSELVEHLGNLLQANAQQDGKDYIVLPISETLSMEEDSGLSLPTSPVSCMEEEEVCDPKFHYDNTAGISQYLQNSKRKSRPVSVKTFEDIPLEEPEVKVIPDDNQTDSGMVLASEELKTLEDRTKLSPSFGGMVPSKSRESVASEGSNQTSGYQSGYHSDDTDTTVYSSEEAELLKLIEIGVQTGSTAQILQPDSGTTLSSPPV

IC50 (KDR) [nM] | IC50 (Mer) [nM] | Compound
300 to 1000 | ≤ 100 | COc1cc2nccc(Oc3ccc(NC(=O)c4c5n(cc(-c6ccc(C)s6)c4=O)CCOC5)cc3F)c2nc1OC [Compound 304, N-[4-[(6,7-Dimethoxy-1,5-naphthyridin-4-yl)oxy]-3-fluorophenyl]-7-(5-methylthiophen-2-yl)-8-oxo-3,4-dihydro-1H-pyrido[2,1-c][1,4]oxazine-9-carboxamide]
≤ 100 | ≤ 100 | COc1cnc2c(Oc3ccc(NC(=O)c4ccc(C)n(-c5ccc(F)cn5)c4=O)cc3F)ccnc2c1 [Compound 45, N-[3-Fluoro-4-[(7-methoxy-1,5-naphthyridin-4-yl)oxy]phenyl]-1-(5-fluoropyridin-2-yl)-6-methyl-2-oxopyridine-3-carboxamide]
≤ 100 | ≤ 100 | COc1cc2nccc(Oc3ccc(NC(=O)c4cnc(C)c(-c5ccco5)c4O)cc3F)c2cc1OC [Compound 259, N-[4-(6,7-Dimethoxyquinolin-4-yl)oxy-3-fluorophenyl]-5-(furan-2-yl)-4-hydroxy-6-methylpyridine-3-carboxamide]
≤ 100 | ≤ 100 | COc1cc2nccc(Oc3ccc(NC(=O)c4c(C)nc(C)c(-c5ccc(F)cn5)c4O)cc3F)c2nc1OC [Compound 218, N-[4-[(6,7-Dimethoxy-1,5-naphthyridin-4-yl)oxy]-3-fluorophenyl]-5-(5-fluoropyridin-2-yl)-4-hydroxy-2,6-dimethylpyridine-3-carboxamide]
300 to 1000 | ≤ 100 | COc1cc2nccc(Oc3ccc(NC(=O)c4c5n(cc(-c6ccco6)c4=O)CCOC5)cc3)c2nc1OC [Compound 298, N-[4-[(6,7-Dimethoxy-1,5-naphthyridin-4-yl)oxy]phenyl]-7-(furan-2-yl)-8-oxo-3,4-dihydro-1H-pyrido[2,1-c][1,4]oxazine-9-carboxamide]
≤ 100 | ≤ 100 | COc1cc2c(Oc3ccc(NC(=O)c4c(C)ncc(-c5ccccn5)c4O)cc3F)ccnc2cn1 [Compound 223, N-[3-Fluoro-4-[(6-methoxy-1,7-naphthyridin-4-yl)oxy]phenyl]-4-hydroxy-2-methyl-5-pyridin-2-ylpyridine-3-carboxamide]
300 to 1000 | ≤ 100 | COc1cnc2c(Oc3ccc(NC(=O)c4cc(C(C)=O)c(C)n(-c5ccoc5)c4=O)cc3F)ccnc2c1 [Compound 240, 5-Acetyl-N-[3-fluoro-4-[(7-methoxy-1,5-naphthyridin-4-yl)oxy]phenyl]-1-(furan-3-yl)-6-methyl-2-oxopyridine-3-carboxamide]
≤ 100 | ≤ 100 | COc1cc2nccc(Oc3ccc(NC(=O)c4ccc(C)n(-c5ccc(F)cn5)c4=O)cc3F)c2nc1OC [Compound 43, N-[4-[(6,7-Dimethoxy-1,5-naphthyridin-4-yl)oxy]-3-fluorophenyl]-1-(5-fluoropyridin-2-yl)-6-methyl-2-oxopyridine-3-carboxamide]
≤ 100 | ≤ 100 | COc1cc2nccc(Oc3ccc(NC(=O)c4ccc(C)n(-c5ccc(F)c(C)n5)c4=O)cc3F)c2nc1OC [Compound 227, N-[4-[(6,7-Dimethoxy-1,5-naphthyridin-4-yl)oxy]-3-fluorophenyl]-1-(5-fluoro-6-methylpyridin-2-yl)-6-methyl-2-oxopyridine-3-carboxamide hydrochloride]
≤ 100 | ≤ 100 | COc1cc2nccc(Oc3ccc(NC(=O)c4cnc(C)c(-c5cccs5)c4O)cc3)c2nc1OC [Compound 256, N-[4-[(6,7-Dimethoxy-1,5-naphthyridin-4-yl)oxy]phenyl]-4-hydroxy-6-methyl-5-thiophen-2-ylpyridine-3-carboxamide]
≤ 100 | ≤ 100 | COc1cc2nccc(Oc3ccc(NC(=O)c4ccc(C)n(-c5ccnc(F)c5)c4=O)cc3F)c2nc1OC [Compound 233, N-[4-[(6,7-Dimethoxy-1,5-naphthyridin-4-yl)oxy]-3-fluorophenyl]-1-(2-fluoropyridin-4-yl)-6-methyl-2-oxopyridine-3-carboxamide]
≤ 100 | ≤ 100 | COCc1nc(C)c(-c2ccc(F)cn2)c(O)c1C(=O)Nc1ccc(Oc2ccnc3cc(OC)c(OC)nc23)c(F)c1 [Compound 214, N-[4-[(6,7-Dimethoxy-1,5-naphthyridin-4-yl)oxy]-3-fluorophenyl]-5-(5-fluoropyridin-2-yl)-4-hydroxy-2-(methoxymethyl)-6-methylpyridine-3-carboxamid]
≤ 100 | ≤ 100 | COCCOc1cc2nccc(Oc3ccc(NC(=O)c4ccc(C)n(-c5ccc(F)cn5)c4=O)cc3F)c2nc1OC [Compound 50, N-[3-Fluoro-4-[[6-methoxy-7-(2-methoxyethoxy)-1,5-naphthyridin-4-yl]oxy]phenyl]-1-(5-fluoropyridin-2-yl)-6-methyl-2-oxopyridine-3-carboxamide]
≤ 100 | ≤ 100 | COCCOc1cc2nccc(Oc3ccc(NC(=O)c4cnc(C)c(-c5ccco5)c4O)cc3F)c2nc1OC [Compound 260, N-[3-Fluoro-4-[[6-methoxy-7-(2-methoxyethoxy)-1,5-naphthyridin-4-yl]oxy]phenyl]-5-(furan-2-yl)-4-hydroxy-6-methylpyridine-3-carboxamide]
≤ 100 | ≤ 100 | COc1cc2nccc(Oc3ccc(NC(=O)c4c(C)ncc(-c5ccccn5)c4O)cc3F)c2nc1OC [Compound 69, N-[4-[(6,7-Dimethoxy-1,5-naphthyridin-4-yl)oxy]-3-fluorophenyl]-4-hydroxy-2-methyl-5-pyridin-2-ylpyridine-3-carboxamide]
≤ 100 | ≤ 100 | COc1cc2nccc(Oc3ccc(NC(=O)c4cnc(C)c(-c5ccc(F)cn5)c4O)cc3F)c2nc1OC [Compound 85, N-[4-[(6,7-Dimethoxy-1,5-naphthyridin-4-yl)oxy]-3-fluorophenyl]-5-(5-fluoropyridin-2-yl)-4-hydroxy-6-methylpyridine-3-carboxamide]
100 to 300 | ≤ 100 | COc1cc2nccc(Oc3ccc(NC(=O)c4ccc(C)n(-c5cccnn5)c4=O)cc3F)c2nc1OC [Compound 234, N-[4-[(6,7-Dimethoxy-1,5-naphthyridin-4-yl)oxy]-3-fluorophenyl]-6-methyl-2-oxo-1-pyridazin-3-ylpyridine-3-carboxamide]
≤ 100 | ≤ 100 | COc1cc2nccc(Oc3ccc(NC(=O)c4ccc(C)n(-c5cccnc5)c4=O)cc3F)c2nc1OC [Compound 222, N-[4-[(6,7-Dimethoxy-1,5-naphthyridin-4-yl)oxy]-3-fluorophenyl]-6-methyl-2-oxo-1-pyridin-3-ylpyridine-3-carboxamide]
300 to 1000 | ≤ 100 | COCCOc1cc2nccc(Oc3ccc(NC(=O)c4c(C)n(C)c(C)c(-c5coc6ccccc56)c4=O)cc3F)c2nc1OC [Compound 264, 5-(1-Benzofuran-3-yl)-N-[3-fluoro-4-[[6-methoxy-7-(2-methoxyethoxy)-1,5-naphthyridin-4-yl]oxy]phenyl]-1,2,6-trimethyl-4-oxopyridine-3-carboxamide]
300 to 1000 | ≤ 100 | COc1cc2nccc(Oc3ccc(NC(=O)c4cc(C(C)=O)c(C)n(-c5ccco5)c4=O)cc3)c2nc1OC [Compound 237, 5-Acetyl-N-[4-[(6,7-dimethoxy-1,5-naphthyridin-4-yl)oxy]phenyl]-1-(furan-2-yl)-6-methyl-2-oxopyridine-3-carboxamide]
100 to 300 | ≤ 100 | COc1cc2nccc(Oc3ccc(NC(=O)c4ccc(C)n(-c5cc[n+]([O-])cc5)c4=O)cc3F)c2nc1OC [Compound 231, N-[4-[(6,7-Dimethoxy-1,5-naphthyridin-4-yl)oxy]-3-fluorophenyl]-6-methyl-1-(1-oxidopyridin-1-ium-4-yl)-2-oxopyridine-3-carboxamide]
≤ 100 | ≤ 100 | COc1cc2nccc(Oc3ccc(NC(=O)c4cccn(-c5ccncc5)c4=O)cc3F)c2nc1OC [Compound 229, N-[4-[(6,7-Dimethoxy-1,5-naphthyridin-4-yl)oxy]-3-fluorophenyl]-2-oxo-1-pyridin-4-ylpyridine-3-carboxamide]
